Measured values published in patent US6379965B1, “Multifunctional complexes for gene transfer into cells comprising a nucleic acid bound to a polyamine and having an endosome disruption agent” (American Home Products Corporation, priority 1994, dated 2002).

Assays:
Muscle Cells = assay: Transfection of muscle cells in vivo with pCMVβ plasmid, β-galactosidase staining of quadriceps; design: species or system BALB-C mice; conditions: 100 μg pCMVβ plasmid + 100 μg compound in 100 μL PBS, injected into rear quadriceps, approx. 96 hrs; control plasmid in 0.25% bupivicaine hydrochloride
Procedure: Solutions were prepared containing 100 μg of pCMVβ plasmid and 100 μg of either N^4-octylspermidine, N^4-dodecylspermidine or N^4-(5-cholestene-3′β-oxycarbonyl)aminopentyl)spermidine, each in 100 μL of phosphate buffered saline. The plasmid solution (100 μL) was injected into the rear quadriceps of 6-12 week old BALB-C mice. The mice were sacrificed approximately 96 hrs later and the entire quadriceps muscle tissue was removed. The muscle was fixed with formalin for 2 hrs, and assayed for β-galactosidase activity using 5-bromo-4-chloro-3-indolyl-β-D-galactopyranoside (1 mg/mL in tris/EDTA pH 8.5). All three injections were scored as positive since the blue color was more intense than the control: injection of 100 μg of pCMVβ plasmid injected in 100 μL of 0.25% bupivicaine hydrochloride in citrate buffer pH 6.0.

[1] = system: Human hepatocellular carcinoma HuH7 cells; assay: Transfection of adherent HuH7 cells in culture with pCMVβ plasmid, β-galactosidase activity; assay type: cell-based; conditions: HuH7 lysate; 0.5 μg pCMVβ plasmid + 0.5 μg tri-galactosyl-lysyl-lysyl aminopentyl spermidine + 2.5 μg cholesteryl-oxycarbonyl aminopentyl spermidine in 100 μL Optimem; after 30 min
Procedure: Human hepatocellular carcinoma HuH7 cells were grown and seeded into a 96 well plate with 1-2×10^4 cells in 100 μL of minimal essential media α, modification with 10% serum. The plates were incubated in a 37° CO2 incubator until the cells were 60-80% confluent (approximately 24 hrs). The media was removed and the cells washed once with Optimem® (serum free media). Optimem® (100 μL) containing 0.5 μg of pCMVβ plasmid (from Clonetech, No. 6177-1), 0.5 μg of N^4-(5-[N^2,N^6-bis(β-3′-propionyl galactosyl-β1-4-thioglucoside)lysyl-N^6-(β-3′-propionyl galactosyl-β1-4-thioglucoside)lysyl]aminopentyl)-spermidine and 2.5 μg of N^4-(5-cholestene-3′β-oxycarbonyl)-aminopentyl)spermidine was added to the cells. The cells were incubated with the mixture for 4 hrs in a 37° CO2 incubator; thereafter 100 μL of media containing 20% serum was added and the incubation continued for an additional 20 hrs. Cells lysed with 0.5% NP-40 in 140 mM NaCl, 10 mM tris, 1.5 mM MgCl2 were assayed for β-galactosidase activity using o-nitrophenyl β-D-galactopyranoside, and gave A405=1.35 after 30 min. Cells grown in 6 well plates (25 mm diameter) and treated similarly were fixed with 2% paraformaldehyde and assayed for β-galactosidase activity using 5-bromo-4-chloro-3-indolyl β-D-galactopyranoside (J. Sambrook, et al., Molecular Cloning: A Laboratory Manual, Cold Spring Harbor, 1989).

Liver Cells = assay: Transfection of liver cells in vivo with pHBVSA plasmid, serum hepatitus B surface antigen immunoassay; design: species or system BALB-C mice; conditions: 10 μg pHBVSA plasmid + 5 μg tri-galactosyl compound + 25 μg cholesteryl compound in 100 μL PBS, tail vein; 48 hrs post-injection; example in present tense
Procedure: […] The plasmid solution (100 μL) is injected into the tail vein of 6-12 week old BALB-C mice. The mice are sacrificed 48-120 hrs later and the serum tested for hepatitus B surface antigen using a commercial enzyme-linked immunoassay.

N^4-octylspermidine
β-galactosidase staining of quadriceps muscle, score versus control (Muscle Cells): positive

CC(C)CCC[C@@H](C)[C@H]1CC[C@H]2[C@@H]3CC=C4C[C@@H](OC(=O)NCCCCCN(CCCN)CCCCN)CC[C@]4(C)[C@H]3CC[C@]12C.Cl [N^4-(5-cholestene-3′β-oxycarbonyl)aminopentyl spermidine hydrochloride Salt]
β-galactosidase staining of quadriceps muscle, score versus control (Muscle Cells): positive
β-galactosidase activity using o-nitrophenyl β-D-galactopyranoside, A405 [1]: 1.35
production of hepatitus B surface antigen in serum (Liver Cells): greater than the positive control

4-[(N^2-[N^2,N^6-bis(3-[4-O(β-D-galactopyranosyl)-β-D-glucopyranosylthio]propionyl)lysyl]N^6-(3-[4-O-(β-D-galactopyranosyl)-β-D-glucopyranosylthio]-propionyl)lysinamido)pentyl]-1,8-diamino-4-azaoctane, acetate salt
β-galactosidase activity using o-nitrophenyl β-D-galactopyranoside, A405 [1]: 1.35
production of hepatitus B surface antigen in serum (Liver Cells): greater than the positive control

CCCCCCCCCCCCN(CCCN)CCCCN.Cl.Cl.Cl [N^4-dodecylspermidine, N^4-dodecylspermidine trihydrochloride]
β-galactosidase staining of quadriceps muscle, score versus control (Muscle Cells): positive
